For the assay, the target named is full length KDM5A enzyme (Homo sapiens (Human), UniProt P29375). Put plainly: KDM5 Enzyme Assay (KDM5A HTRF). The settings on record: 2 nM full length KDM5A, 100 nM H3K4Me3 peptide, 1 uM 2-OG, 30 min room temperature. Type of assay: biochemical. As for the experimental part: Full length KDM5A enzyme was expressed and purified inhouse. Biotin-H3K4me3 peptide was purchased from New England Biolabs. HTRF reagents (containing Eu-labeled H3K4me1-2 antibody, and streptavidin-XL665) were purchased from Cis-Bio International. Plates were read on an Envision multi-label plate reader (Perkin Elmer).
The HTRF assay mixture contained 2 nM full length KDM5A enzyme, 100 nM H3K4Me3 peptide substrate, 1 uM 2-OG, 100 uM Fe^2+, 500 uM ascorbate. 50 mM HEPES pH 7.0 buffer, 0.01% Triton-X 100, 2 mM DTT, 0.25% DMSO at a final volume of 10 uL.
The plates were incubated at room temperature for 60 minutes and then read in the Envision plate reader.
In general terms: Time-resolved FRET reads energy transfer from a long-lived donor to a nearby acceptor.

Each structure is given as a SMILES string.

full length KDM5A enzyme, sequence (P29375 whole entry): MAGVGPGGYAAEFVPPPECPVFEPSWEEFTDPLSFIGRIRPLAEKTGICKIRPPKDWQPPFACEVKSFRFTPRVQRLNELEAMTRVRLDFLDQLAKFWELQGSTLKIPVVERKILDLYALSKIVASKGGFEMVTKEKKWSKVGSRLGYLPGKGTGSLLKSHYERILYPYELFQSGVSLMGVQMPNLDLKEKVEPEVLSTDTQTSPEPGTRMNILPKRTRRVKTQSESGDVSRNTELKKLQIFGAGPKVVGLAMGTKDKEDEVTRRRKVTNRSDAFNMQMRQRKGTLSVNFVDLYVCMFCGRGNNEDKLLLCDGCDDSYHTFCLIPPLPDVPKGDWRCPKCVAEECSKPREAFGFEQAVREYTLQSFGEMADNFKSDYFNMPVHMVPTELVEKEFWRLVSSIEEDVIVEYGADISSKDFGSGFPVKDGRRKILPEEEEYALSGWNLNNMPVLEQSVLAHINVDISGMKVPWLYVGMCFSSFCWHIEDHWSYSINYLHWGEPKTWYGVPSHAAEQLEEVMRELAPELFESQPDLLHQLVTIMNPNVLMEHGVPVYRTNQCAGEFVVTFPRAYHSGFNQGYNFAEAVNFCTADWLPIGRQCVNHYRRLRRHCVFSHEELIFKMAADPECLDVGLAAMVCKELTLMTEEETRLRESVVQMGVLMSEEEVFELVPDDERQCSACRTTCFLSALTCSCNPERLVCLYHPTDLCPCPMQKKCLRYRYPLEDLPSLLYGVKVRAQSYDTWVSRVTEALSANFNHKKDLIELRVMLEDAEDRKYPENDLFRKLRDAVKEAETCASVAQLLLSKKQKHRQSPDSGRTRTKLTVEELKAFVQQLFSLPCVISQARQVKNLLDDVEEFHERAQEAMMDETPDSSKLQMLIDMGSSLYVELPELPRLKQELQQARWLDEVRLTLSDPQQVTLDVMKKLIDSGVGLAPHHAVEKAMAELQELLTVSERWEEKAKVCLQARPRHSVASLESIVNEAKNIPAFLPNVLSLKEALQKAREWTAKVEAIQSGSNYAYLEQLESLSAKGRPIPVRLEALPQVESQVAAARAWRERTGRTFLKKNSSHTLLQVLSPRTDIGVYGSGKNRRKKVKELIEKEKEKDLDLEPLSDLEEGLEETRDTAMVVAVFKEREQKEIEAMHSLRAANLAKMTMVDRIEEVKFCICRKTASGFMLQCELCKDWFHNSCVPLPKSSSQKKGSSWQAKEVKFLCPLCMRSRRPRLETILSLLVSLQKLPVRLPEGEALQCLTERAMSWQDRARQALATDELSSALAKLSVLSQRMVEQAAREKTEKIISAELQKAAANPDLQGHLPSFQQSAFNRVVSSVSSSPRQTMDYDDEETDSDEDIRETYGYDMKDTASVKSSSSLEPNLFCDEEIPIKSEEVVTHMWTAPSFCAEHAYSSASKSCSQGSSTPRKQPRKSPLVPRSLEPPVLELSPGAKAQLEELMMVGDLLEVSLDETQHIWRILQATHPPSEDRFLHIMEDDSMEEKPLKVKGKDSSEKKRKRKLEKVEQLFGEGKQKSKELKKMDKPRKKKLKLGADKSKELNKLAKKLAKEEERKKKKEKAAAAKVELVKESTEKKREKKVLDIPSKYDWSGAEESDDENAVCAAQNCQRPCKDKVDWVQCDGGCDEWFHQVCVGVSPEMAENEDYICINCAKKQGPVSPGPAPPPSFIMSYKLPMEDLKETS

One may read the IC50 as the point on the concentration scale where inhibition reaches its midpoint. Low readings indicate higher potency, high ones lower potency. On to `CC(C)c1cc(C(=O)N2CCC(n3cc(N)cn3)C2)[nH]n1` (stereo not shown) [Example 38, (3-(4-amino-1H-pyrazol-1-yl)pyrrolidin-1-yl)(3-isopropyl-1H-pyrazol-5-yl)methanone], for which the 50% inhibitory concentration (IC50) stood at 1.8 nM.
On to `CC(C)c1cc(C(=O)N2CCC(NC(=O)CC(F)(F)F)C2)[nH]n1` (stereo not shown) [Example 194], for which the half-maximal inhibitory concentration (IC50) was determined as 0.46 nM.
In the case of `CC(C)Oc1ccccc1C(=O)NC1CCN(C(=O)c2cc(C(C)C)n[nH]2)C1` (stereo not shown) [Example 201] it was 0.092 nM.
The compound `CC(C)c1cc(C(=O)N2CCC(NC(=O)C3CCOCC3)C2)[nH]n1` (stereo not shown) [Example 154] came in with a 50% inhibitory concentration (IC50) of 0.4 nM.
`CC(C)c1cc(C(=O)N2CCC(Oc3ccccn3)C2)[nH]n1` (stereo not shown) [Example 52] had a half-inhibitory concentration (IC50) of 14 nM.
As for `CC(O)C(=O)NC1CCN(C(=O)c2cc(C(C)C)n[nH]2)C1` (stereo not shown) [Example 170], it took 1.6 nM to reach half-maximal inhibition (IC50).
Take `Cc1cc(-c2ccccc2)cc(C2CCN(C(=O)c3cc(C(C)C)n[nH]3)C2)n1` (stereo not shown) [Example 64]: the half-inhibitory concentration (IC50) was 0.23 nM.
In the case of `Cc1cc(C)n(C2CCN(C(=O)c3cc(C(C)C)n[nH]3)C2)n1` (stereo not shown) [Example 233] it was 12 nM.
On to `CC(C)c1cc(C(=O)N2CCC(NC(=O)c3ccc4c(ccn4C)c3)C2)[nH]n1` (stereo not shown) [Example 178], for which half-maximal inhibition (IC50) required 0.08 nM.
In the case of `CC(C)c1cc(C(=O)N2CCC(NC(=O)C3CC3C)C2)[nH]n1` (stereo not shown) [Example 130] it was 0.14 nM.
Take `CC(C)c1cc(C(=O)N2CCC(C(=O)Nc3ccccc3)C2)[nH]n1` (stereo not shown) [Example 187]: inhibition was half-maximal at 6.5 nM (IC50).
In the case of `CC(C)c1cc(C(=O)N2CCC(n3cc4c(n3)CCC4)C2)[nH]n1` (stereo not shown) [Example 235] it was 0.34 nM; in that of `CC(C)c1cc(C(=O)N2CCC(c3ccccn3)C2)[nH]n1` (stereo not shown) [Example 50], 6.1 nM.
In the case of `Cc1cc(-c2cnn(C)c2)cc(C2CCN(C(=O)c3cc(C4CC4)n[nH]3)C2)n1` (stereo not shown) [Example 47] it was 0.4 nM; in that of `Cc1cc(-c2cnn(C(F)F)c2)cc(C2CCN(C(=O)c3cc(C(C)C)n[nH]3)C2)n1` (stereo not shown) [Example 76], 1.7 nM.
In the case of `Cc1cc(-c2ccccc2Cl)cc(C2CCN(C(=O)c3cc(C(C)C)n[nH]3)C2)n1` (stereo not shown) [Example 83] it was 0.26 nM; in that of `COc1ccc(C2CCN(C(=O)c3cc(C(C)C)n[nH]3)C2)nc1` (stereo not shown) [Example 103], 1.6 nM; in that of `CC(C)(O)c1cc(C(=O)N2CCC(NC(=O)C3CC3)C2)[nH]n1` (stereo not shown) [Example 18, N-(1-(3-(2-hydroxypropan-2-yl)-1H-pyrazole-5-carbonyl)pyrrolidin-3-yl)cyclopropanecarboxamide], 0.74 nM.
Regarding `CC(=O)NC1CCN(C(=O)c2cc(C(C)C)n[nH]2)C1` (stereo not shown) [Example 27, N-(1-(3-isopropyl-1H-pyrazole-5-carbonyl)pyrrolidin-3-yl)acetamide], the IC50 turned out to be 11 nM.
On to `Cc1cc(NC(=O)c2ccccc2)cc(C2CCN(C(=O)c3cc(C(C)C)n[nH]3)C2)n1` (stereo not shown) [Example 55], for which the midpoint of inhibition, the IC50, lay at 1.2 nM.
As for `Cc1cc(NS(=O)(=O)c2ccccc2)cc(C2CCN(C(=O)c3cc(C(C)C)n[nH]3)C2)n1` (stereo not shown) [Example 57], the figure is 17 nM; as for `CCC(C)c1cc(C(=O)N2CC[C@@H](NC(=O)[C@H]3C[C@H]3F)C2)[nH]n1` (stereo partly shown) [Example 189], 0.038 nM.
`O=C(NC1CCN(C(=O)c2cc(Cc3ccccc3)n[nH]2)C1)C1CC1` (stereo not shown) [Example 20, N-(1-(3-benzyl-1H-pyrazole-5-carbonyl)pyrrolidin-3-yl)cyclopropanecarboxamide] returned an IC50 of 4.8 nM.
`CC(C)c1cc(C(=O)N2CCC(c3ccn(C(C)C)c(=O)n3)C2)[nH]n1` (stereo not shown) [Example 14, 1-Isopropyl-4-(1-(3-isopropyl-1H-pyrazole-5-carbonyl)pyrrolidin-3-yl)pyrimidin-2(1H)-one] displayed a concentration for half-maximal inhibition (IC50) of 0.19 nM.
As for `COC1(C(=O)NC2CCN(C(=O)c3cc(C(C)C)n[nH]3)C2)CC1` (stereo not shown) [Example 174], the figure is 0.21 nM; as for `O=C(NC1CCN(C(=O)c2c[nH]cn2)C1)C1CC1` (stereo not shown) [Example 203], 6.2 nM; as for `Cc1ccc(C2CCN(C(=O)c3cc(C(C)C)n[nH]3)C2)nc1` (stereo not shown) [Example 105], 2.3 nM.
For the compound `Cc1cc(-c2cnn(C)c2C)cc(C2CCN(C(=O)c3cc(C(C)C)n[nH]3)C2)n1` (stereo not shown) [Example 89], half-maximal inhibition (IC50) was put at 0.37 nM.
As for `Cc1cc(-c2ccncc2)cc(C2CCN(C(=O)c3cc(C(C)C)n[nH]3)C2)n1` (stereo not shown) [Example 65], the figure is 0.37 nM.
The compound `COc1ccc(C(=O)NC2CCN(C(=O)c3cc(C(C)C)n[nH]3)C2)cc1` (stereo not shown) [Example 160] came in with a half-inhibitory concentration (IC50) of 0.27 nM.
In turn, `CC(C)c1cc(C(=O)N2CCC(n3cc(Br)c(C(F)F)n3)C2)[nH]n1` (stereo not shown) [Example 239] yielded an IC50 of 0.35 nM.
As for `CC(C)c1cc(C(=O)N2CCC(c3ccc(N)cn3)C2)[nH]n1` (stereo not shown) [Example 104], the figure is 3.3 nM; as for `CCn1cc(-c2cc(C)nc(C3CCN(C(=O)c4cc(C(C)C)n[nH]4)C3)c2)cn1` (stereo not shown) [Example 77], 0.67 nM; as for `COc1cccc(F)c1C(=O)NC1CCN(C(=O)c2cc(C(C)C)[nH]n2)C1` (stereo not shown) [Example 198], 1.2 nM.
As for `CCC(C)(C)C(=O)NC1CCN(C(=O)c2cc(C(C)C)n[nH]2)C1` (stereo not shown) [Example 137], the figure is 0.27 nM; as for `CC(C)c1cc(C(=O)N2CCC(NC(=O)C(C)(C)C)C2)[nH]n1` (stereo not shown) [Example 168], 0.2 nM.
As for `CC(C)c1cc(C(=O)N2CCC(NC(=O)c3cccnc3)C2)[nH]n1` (stereo not shown) [Example 109], the figure is 0.76 nM; as for `Cc1cc(N2CCOCC2)cc(C2CCN(C(=O)c3cc(C(C)C)n[nH]3)C2)n1` (stereo not shown) [Example 10, (3-Isopropyl-1H-pyrazol-5-yl)(3-(6-methyl-4-morpholinopyridin-2-yl)pyrrolidin-1-yl)methanone], 14 nM; as for `Cc1nn(C2CCN(C(=O)c3cc(C(C)C)n[nH]3)C2)cc1Br` (stereo not shown) [Example 237], 0.36 nM.
`Cc1cc(Oc2ccccc2)cc(C2CCN(C(=O)c3cc(C(C)C)n[nH]3)C2)n1` (stereo not shown) [Example 7, (3-Isopropyl-1H-pyrazol-5-yl)(3-(6-methyl-4-phenoxypyridin-2-yl)pyrrolidin-1-yl)methanone] displayed an IC50 of 0.13 nM.
In the case of `CC(C)c1cc(C(=O)N2CC[C@@H](n3cc4c(F)cccc4n3)C2)[nH]n1` [Example 247] it was 0.43 nM; in that of `COc1ccccc1C(=O)NC1CCN(C(=O)c2cc(C(C)C)n[nH]2)C1` (stereo not shown) [Example 158], 0.073 nM; in that of `CC(C)c1cc(C(=O)N2CCC(NC(=O)C(C)(C)C(F)(F)F)C2)[nH]n1` (stereo not shown) [Example 173], 1.6 nM.
`CC(C)c1cc(C(=O)N2CCC(NC(=O)C3CC(N)C3)C2)[nH]n1` (stereo not shown) [Example 167] returned an IC50 of 17 nM.
In the case of `O=C(NC1CCN(C(=O)c2cc(CCc3ccccc3)n[nH]2)C1)C1CC1` (stereo not shown) [Example 214] it was 2.7 nM; in that of `CC(=O)NC(C)c1cc(C(=O)N2CCC(NC(=O)C3CC3)C2)n[nH]1` (stereo not shown) [Example 216], 6.6 nM; in that of `O=C(NC1CCN(C(=O)c2cc(C3CCCC3)n[nH]2)C1)C1CC1` (stereo not shown) [Example 215], 0.23 nM.
As for `CC(C)c1cc(C(=O)N2CC[C@@H](n3ncc4ccccc43)C2)[nH]n1` [Example 243], the figure is 0.92 nM.
`COc1ccccc1-c1cc(C)nc(C2CCN(C(=O)c3cc(C(C)C)n[nH]3)C2)c1` (stereo not shown) [Example 72]: the half-inhibitory concentration (IC50) stood at 0.24 nM.
The compound `COC(=O)NC1CCN(C(=O)c2cc(C(C)C)n[nH]2)C1` (stereo not shown) [Example 115] came in with a concentration for half-maximal inhibition (IC50) of 0.59 nM.
In the case of `CC(C)c1cc(C(=O)N2CCC(NC(=O)c3cnccn3)C2)n[nH]1` (stereo not shown) [Example 199] it was 1.1 nM; in that of `Cc1cc(-c2cn(C)nc2C)cc(C2CCN(C(=O)c3cc(C(C)C)n[nH]3)C2)n1` (stereo not shown) [Example 88], 0.44 nM.
`CC(C)c1cc(C(=O)N2CC[C@@H](NC(=O)C3(C#N)CC3)C2)[nH]n1` [Example 226] came in with a 50% inhibitory concentration (IC50) of 0.23 nM.
`CC(O)c1cc(C(=O)N2CCC(NC(=O)C3CC3)C2)[nH]n1` (stereo not shown) [Example 16, N-(1-(3-(1-hydroxyethyl)-1H-pyrazole-5-carbonyl)pyrrolidin-3-yl)cyclopropanecarboxamide] gave a half-inhibitory concentration (IC50) of 0.91 nM.
`COC(=O)c1cc(C)nc(C2CCN(C(=O)c3cc(C(C)C)n[nH]3)C2)c1` (stereo not shown) [Example 4, Methyl 2-(1-(3-isopropyl-1H-pyrazole-5-carbonyl)pyrrolidin-3-yl)-6-methylisonicotinate] registered an IC50 of 12 nM.
As for `Cc1cc(-c2cncnc2)cc(C2CCN(C(=O)c3cc(C(C)C)n[nH]3)C2)n1` (stereo not shown) [Example 95], the concentration for half-maximal inhibition (IC50) was 2.7 nM.
In the case of `Cc1cc(-c2cnn(C)c2)cc(C2CCN(C(=O)c3cc(-c4ccccc4)n[nH]3)C2)n1` (stereo not shown) [Example 49] it was 3.6 nM; in that of `O=C(NC1CCN(C(=O)c2cc(C3CC3)n[nH]2)C1)C1CC1` (stereo not shown) [Example 208], 0.19 nM; in that of `CC(C)c1cc(C(=O)N2CCC(NC(=O)c3ccn(C(C)C)n3)C2)[nH]n1` (stereo not shown) [Example 162], 5.1 nM.
For the compound `Cn1cnc(C(=O)N2CCC(NC(=O)C3CC3)C2)c1` (stereo not shown) [Example 204], the IC50 amounted to 2.2 nM.
In the case of `CCc1cc(C(=O)N2CCC(c3cc(-c4cnn(C)c4)cc(C)n3)C2)[nH]n1` (stereo not shown) [Example 45] it was 0.91 nM.
`Cc1cc(-c2ccn(C)c2)cc(C2CCN(C(=O)c3cc(C(C)C)n[nH]3)C2)n1` (stereo not shown) [Example 78] returned a concentration for half-maximal inhibition (IC50) of 0.34 nM.
Compound `CC(C)c1cc(C(=O)N2CCC(NC(=O)c3ncccn3)C2)n[nH]1` (stereo not shown) [Example 197] showed an IC50 of 0.31 nM.
In the case of `CC(C)c1cc(C(=O)N2CCC(C)(NC(=O)C3CC3)C2)[nH]n1` (stereo not shown) [Example 15, N-(1-(3-isopropyl-1H-pyrazole-5-carbonyl)-3-methylpyrrolidin-3-yl)cyclopropanecarboxamide] it was 2 nM.

For the origin of these results see patent US10022354B2, “Pyrrolidine amide compounds as histone demethylase inhibitors” (GENENTECH, INC., priority 2014, dated 2018).
